Measured values reported in patent US20100316575A1, “MODULATING BODY WEIGHT” (priority 2008, published 2010).

Target: T1, KATP channels (Mus musculus, UniProt P70170+Q61743)
T1 construct: Pacing perfused hearts isolated from WT and Kir6.2-KO mice; from tissue; host or cells: isolated, retrogradely perfused and paced hearts of wild-type mice
Assay: Rate-dependent action potential duration (APD90) in paced, perfused isolated hearts
Parameters: species or system mice
Settings: isolated perfused paced WT mouse hearts, KATP-channel blockade with glyburide, FIG. 5B
Text: FIG. 5. […] The KATP channel-dependent component in rate-dependent action potential shortening was verified in WT hearts following KATP-channel blockade with the sulfonylurea blocker glyburide (FIG. 5B). […] Maximal oxygen consumption (V O2max), corresponding to the highest tolerated workload, reflects the maximal rate of energy production and the ability of the cardiovascular system to supply oxygen. Kir6.2-KO and WT mice achieved the same level of V O2max reflecting their equivalent oxidative phosphorylation potential. […] This was associated with high lactate levels in the blood (FIG. 5E), indicating compromise of the cardiovascular system. Activity-related energy expenditure largely reflects the performance of cardiac and skeletal muscle, tissues with abundant KATP channel expression. Accordingly, cardiac muscle was used as a model of striated musculature. As cardiac function and associated energy consumption depends on electrical determinants, the contribution of KATP channels in heart rate-dependent modulation of action potential duration and rate of oxygen consumption were tested. Telemetry recording of cardiac activity defined that both WT and Kir6.2-KO mice display a heart rate profile with a 400 to 800 beats per minute range (FIG. 5A). […]

T1 sequence (Q61743 whole entry, the tested form may be a part): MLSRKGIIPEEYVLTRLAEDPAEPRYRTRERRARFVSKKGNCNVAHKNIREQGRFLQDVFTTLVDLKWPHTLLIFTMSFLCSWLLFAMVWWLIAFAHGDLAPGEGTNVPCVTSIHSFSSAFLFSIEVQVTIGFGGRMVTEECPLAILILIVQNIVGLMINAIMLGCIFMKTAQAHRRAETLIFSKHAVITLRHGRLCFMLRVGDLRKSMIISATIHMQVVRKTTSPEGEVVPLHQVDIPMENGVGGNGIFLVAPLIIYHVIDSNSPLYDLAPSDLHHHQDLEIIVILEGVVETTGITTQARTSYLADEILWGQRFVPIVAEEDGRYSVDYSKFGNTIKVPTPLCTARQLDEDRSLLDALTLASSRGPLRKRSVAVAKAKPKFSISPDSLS
T1 sequence (P70170 whole entry, the tested form may be a part): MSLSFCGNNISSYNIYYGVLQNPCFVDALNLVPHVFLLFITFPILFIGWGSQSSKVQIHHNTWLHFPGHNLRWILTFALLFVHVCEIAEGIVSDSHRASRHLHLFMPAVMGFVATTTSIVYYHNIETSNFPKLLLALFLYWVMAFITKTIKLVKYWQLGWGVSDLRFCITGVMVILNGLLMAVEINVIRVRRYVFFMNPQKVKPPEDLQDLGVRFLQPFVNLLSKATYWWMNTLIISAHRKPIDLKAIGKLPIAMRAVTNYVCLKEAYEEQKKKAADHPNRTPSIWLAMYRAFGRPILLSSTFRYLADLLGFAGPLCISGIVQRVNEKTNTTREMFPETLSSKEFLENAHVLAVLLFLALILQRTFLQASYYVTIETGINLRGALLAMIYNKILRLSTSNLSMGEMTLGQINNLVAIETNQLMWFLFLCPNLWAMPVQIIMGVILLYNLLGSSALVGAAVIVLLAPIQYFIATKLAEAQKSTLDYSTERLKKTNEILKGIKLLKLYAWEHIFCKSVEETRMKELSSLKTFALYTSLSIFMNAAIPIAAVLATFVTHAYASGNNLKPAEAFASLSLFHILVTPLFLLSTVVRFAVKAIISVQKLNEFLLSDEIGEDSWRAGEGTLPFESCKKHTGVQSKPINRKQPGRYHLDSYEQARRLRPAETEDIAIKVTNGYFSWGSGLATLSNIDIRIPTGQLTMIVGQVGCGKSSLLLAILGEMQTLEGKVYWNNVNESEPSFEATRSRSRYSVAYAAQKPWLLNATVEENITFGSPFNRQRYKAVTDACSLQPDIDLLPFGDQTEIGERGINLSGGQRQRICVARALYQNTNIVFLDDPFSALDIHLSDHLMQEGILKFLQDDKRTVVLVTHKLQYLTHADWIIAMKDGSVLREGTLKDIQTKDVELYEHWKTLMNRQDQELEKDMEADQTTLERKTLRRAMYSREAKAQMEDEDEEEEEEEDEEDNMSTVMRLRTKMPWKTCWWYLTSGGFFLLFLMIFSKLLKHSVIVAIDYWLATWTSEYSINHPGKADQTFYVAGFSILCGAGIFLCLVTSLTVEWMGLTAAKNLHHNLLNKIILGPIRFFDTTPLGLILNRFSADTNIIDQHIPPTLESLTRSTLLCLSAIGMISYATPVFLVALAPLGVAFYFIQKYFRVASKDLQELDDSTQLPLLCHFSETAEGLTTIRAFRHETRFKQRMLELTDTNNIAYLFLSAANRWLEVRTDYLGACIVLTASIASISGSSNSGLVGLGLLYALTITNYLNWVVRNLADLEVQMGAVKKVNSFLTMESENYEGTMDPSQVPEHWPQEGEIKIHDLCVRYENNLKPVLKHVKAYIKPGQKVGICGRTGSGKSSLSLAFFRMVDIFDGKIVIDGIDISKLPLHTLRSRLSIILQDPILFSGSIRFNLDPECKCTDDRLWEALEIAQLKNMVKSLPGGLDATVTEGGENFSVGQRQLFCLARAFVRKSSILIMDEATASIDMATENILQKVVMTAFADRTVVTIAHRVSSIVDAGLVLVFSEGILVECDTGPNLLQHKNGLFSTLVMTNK

KATP channel-dependent component in rate-dependent action potential shortening (monophasic APD90): verified
Compound: COc1ccc(Cl)cc1C(=O)NCCc1ccc(S(=O)(=O)NC(=O)NC2CCCCC2)cc1 [glyburide]
